Patent US20240270744A1 (Hoffmann-La Roche Inc., priority 2021, published 2024)

Key:
[1] = target: human GABAA α5β2γ1 receptor (Homo sapiens (Human), UniProt P31644+Q8N1C3); assay: Radioligand binding assay, competition for [3H]RO7239181, γ1-containing GABAA subtypes; conditions: Table 1; [3H]RO7239181 displacement, membranes from HEK293F cells, mean of two determinations
[2] = target: human GABAA α2β2γ1 receptor (Homo sapiens (Human), UniProt P47869+Q8N1C3); assay: as above; conditions: for Ki: [3H]RO7239181 displacement
[3] = target: human GABAA α1β3γ2 receptor (Homo sapiens (Human), UniProt P14867+P18507); assay: Radioligand binding assay, competition for [3H]Flumazenil, γ2-containing GABAA subtypes; conditions: Table 1; [3H]Flumazenil displacement, HEK293F cells, mean of two determinations; read-out: Ki h-GABAA α1β3γ2
Method in brief: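 Transiently transfected HEK293F cells expressing human α1β3γ2 receptors, prepared in Mannitol Buffer pH 7.2-7.4, competed for [3H]Flumazenil (81.1 Ci/mmol) binding. Incubation ran to equilibrium for 1 hour at 4 °C, followed by filtration and scintillation counting. Ki values are means of two determinations.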

Structure (SMILES): C[C@@H]1N=C(c2c(F)cccc2F)c2c(cnc(C(F)(F)F)c2Cl)-n2nc(C(=O)NCC3(O)CC3)nc21 [Example 22, (7S)-11-chloro-9-(2,6-difluorophenyl)-N-[(1-hydroxycyclopropyl)methyl]-7-methyl-12-(trifluoromethyl)-2,3,5,8,13-pentazatricyclo[8.4.0.02,6]tetradeca-1(10),3,5,8,11,13-hexaene-4-carboxamide]
- Ki [1]: 6.4 nM
- Ki ([2]; Ki h-GABAA α2β2γ1, Table 1, membranes from HEK293F cells, mean of two determinations): 43.2 nM
- Ki ([2]; Ki h-GABAA α2β2γ1, Table 2): 43.2 nM
- γ2/γ1 Selectivity Ratio ([2]; Table 1, Ki α1β3γ2 (nM)/Ki α2β2γ1 (nM)): 245
- LogSel ([2]; Table 1, Log of the γ2/γ1 Ki ratio): 2.39
- Ki [3]: 10.6 µM
